The target of data set [1] is T1, Cyclin-G-associated kinase (Homo sapiens, UniProt O14976).
T1 sequence (O14976 whole entry): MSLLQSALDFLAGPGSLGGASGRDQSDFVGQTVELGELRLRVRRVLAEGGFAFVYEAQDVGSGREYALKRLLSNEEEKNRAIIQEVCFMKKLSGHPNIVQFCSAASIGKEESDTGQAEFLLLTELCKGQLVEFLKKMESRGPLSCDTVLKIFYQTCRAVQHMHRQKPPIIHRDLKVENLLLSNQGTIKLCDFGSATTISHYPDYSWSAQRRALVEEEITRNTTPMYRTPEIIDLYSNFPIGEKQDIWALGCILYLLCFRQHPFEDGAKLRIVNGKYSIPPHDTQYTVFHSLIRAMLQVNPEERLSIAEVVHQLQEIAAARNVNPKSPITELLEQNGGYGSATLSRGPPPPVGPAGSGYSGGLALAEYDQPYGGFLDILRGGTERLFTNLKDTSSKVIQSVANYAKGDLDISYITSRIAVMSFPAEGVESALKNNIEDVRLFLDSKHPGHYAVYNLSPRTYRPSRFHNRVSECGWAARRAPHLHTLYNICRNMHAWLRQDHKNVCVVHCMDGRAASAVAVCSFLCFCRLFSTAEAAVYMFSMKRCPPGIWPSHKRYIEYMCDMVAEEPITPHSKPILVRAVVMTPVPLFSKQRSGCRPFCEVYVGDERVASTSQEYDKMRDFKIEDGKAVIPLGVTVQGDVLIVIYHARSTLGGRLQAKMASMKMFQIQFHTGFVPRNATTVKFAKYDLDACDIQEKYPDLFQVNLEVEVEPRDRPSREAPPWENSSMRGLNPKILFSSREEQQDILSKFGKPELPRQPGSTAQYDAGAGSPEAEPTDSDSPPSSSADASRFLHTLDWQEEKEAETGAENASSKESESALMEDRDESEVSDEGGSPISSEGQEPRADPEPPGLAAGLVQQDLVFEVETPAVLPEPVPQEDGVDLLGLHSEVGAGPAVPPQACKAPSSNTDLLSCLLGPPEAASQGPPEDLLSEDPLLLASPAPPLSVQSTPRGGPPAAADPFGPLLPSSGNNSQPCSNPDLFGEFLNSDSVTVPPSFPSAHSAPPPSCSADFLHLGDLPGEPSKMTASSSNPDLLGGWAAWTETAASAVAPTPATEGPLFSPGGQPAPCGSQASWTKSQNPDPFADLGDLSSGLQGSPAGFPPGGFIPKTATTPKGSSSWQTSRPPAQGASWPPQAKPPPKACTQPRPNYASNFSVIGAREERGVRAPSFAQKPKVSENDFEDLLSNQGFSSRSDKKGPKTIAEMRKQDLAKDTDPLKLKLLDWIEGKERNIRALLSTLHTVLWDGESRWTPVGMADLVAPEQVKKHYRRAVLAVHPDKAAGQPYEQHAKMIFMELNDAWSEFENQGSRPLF
Briefly: Binding affinity to wild type DNA-tagged human GAK (G13 to Y338 residues) expressed in bacterial expression system by quantitative PCR based KINOMEscan assay.

The subject of another data set is dengue virus type 2. Briefly: Antiviral activity against DENV2 New Guinea C infected in human HuH7 cells after 48 hrs by luciferase reporter gene assay. Format: functional, organism-based. The conditions noted are these: Thailand/NGS-C/1944, Huh-7, 48 h. On the technique in general: A reporter such as luciferase makes a cellular process visible.
Another data set has as its system Huh-7. Briefly: Cytotoxicity against human HuH7 cells assessed as reduction in cell viability at 0.01 to 10 uM after 48 hrs by Cell-Titer Glo assay. The conditions noted are these: huh-7, 48 h. Format: cell-based.

pEC50, pKd: −log10 of the molar value.

In turn, `COc1ccc(-c2cnc3c(-c4ccsc4)snc3c2)cc1OC` had a negative logarithm of the Kd (pKd) in data set [1] of 6.07.
In the data set with dengue virus type 2, `COc1ccc(-c2cnc3c(-c4ccc(OC)c(OC)c4)snc3c2)cc1OC` showed a pEC50 of 5.47. The Activity result in the data set with Huh-7 is “Non-Toxic”.
On to `COc1ccc(-c2cnc3c(-c4ccncc4)snc3c2)cc1OC`, for which the pKd in data set [1] was 6.28.
On the same count and under the same terms, as for `COc1ccc(-c2cnc3c(-c4ccc(C#N)cc4)snc3c2)cc1OC`, the figure is < 4.52; as for `COc1ccc(-c2cnc3c(C#Cc4ccccc4)snc3c2)cc1OC`, < 4.52.
Same read-out and setting: in the case of `COC(=O)c1ccc(-c2snc3cc(-c4ccc(OC)c(OC)c4)cnc23)cc1` it was < 4.52.
On the same count and under the same terms, in the case of `COc1ccc(-c2cnc3c(-c4ccccc4)snc3c2)cc1OC` it was 6.11.

One may read the pKd as −log10 of the Kd, conventionally taken in molar units. Low values mean a high Kd, high ones a low Kd. The term pEC50 denotes the negative decadic logarithm of the EC50, by convention in mol/L. Low values mean a large EC50, high ones a small EC50.
